Like-named read-outs stand apart in the source and are kept apart here.
Experiments:
AaegOR9 [1] = target: T1, AaegOR9 (Aedes aegypti, UniProt Q177X5); assay: Two-electrode voltage clamp of Xenopus oocytes expressing AaegOR9-ORco (tuning curve and concentration-response); format: cell-based
Experimental: The methodologies and protocols have been described in details elsewhere (Bohbot and Dickens, [2009]). AaegOr9 and Aaeg-ORco cRNAs (Bohbot et al., [2011]) were synthesized from linearized pSP64DV expression vectors using the mMESSAGE mMACHINE® SP6 kit (Life Technologies). Stage V-VII oocytes were harvested from Xenopus laevis females, mechanically separated, treated with collagenase (8 mg/mL, 30 min, 18°C) and rinsed in washing solution (96 mM NaCl, 2 mM KCl, 5 mM MgCl2 and 5 mM HEPES, pH 7.6). Oocytes were microinjected with 27.6 ng AaegOr9 and AaegORco cRNAs, incubated at 18°C for 3–4 days in ND96 solution (96 mM NaCl, 2 mM KCl, 5 mM MgCl2, 0.8 mM CaCl2 and 5 mM HEPES, pH 7.6), supplemented with 5% dialyzed horse serum, 50 μg/mL tetracycline, 100 μg/mL streptomycin and 550 μg/mL sodium pyruvate. Whole-cell currents were recorded using the two-microelectrode voltage-clamp technique. During recording sessions, the holding potential was maintained at −80 mV using an OC-725C oocyte clamp (Warner Instruments, LLC, Hamden, CT, USA). Oocytes placed in a RC-3Z oocyte recording chamber (Warner Instruments, LLC, Hamden, CT, USA) were exposed to odorants for 8 s. Current was allowed to return to baseline between odorant applications. Data acquisition and concentration-response analyses were carried out with a Digidata 1550A and the pCLAMP10 software (Molecular Devices, Sunnyvale, CA, USA), and analyzed using GraphPad Prism 7 (GraphPad Software Inc., La Jolla, CA, USA). Stock concentration of odorants (10^−2 M) were dissolved in ringer solution containing 2% dimethyl sulfoxide (DMSO) in order to solubilize the hydrophobic indolic compounds.
The response profile was established using multiple sessions, each including six compounds at a time and indole as an internal reference. […] All the response values were normalized to the indole reference in each recording session (Supplementary Figure 1).
For the establishment of the concentration-response curves, oocytes were exposed to increasing concentrations of indole, skatole and indole-3-carboxaldehyde (I3C; Supplementary Figure 2). Quantitative characterization of OR sensitivity was estimated using the averaged effective concentration at 50% of the maximal response (EC50) over the sample population. The data to establish the concentration response curve and EC50 of AaegOR10-skatole was extracted from a previous study (Bohbot and Dickens, [2012]).
We also included indole and skatole as references (Bohbot et al., [2011]). The screen was carried out using a low odorant concentration (500 nM) in order to mitigate the caveats associated with high ligand concentrations, including receptor adaptation, antagonist effects and technical artifacts such as broad molecular receptive ranges (Bohbot and Pitts, [2015]).

OR02-ORco [2] = tested on: OR02-ORco; design: method as in Wang et al., 2010; conditions: Anopheles gambiae OR02-ORco; kairomone receptor; ref Wang et al., 2010; cited from earlier work
AaegOR9 [3] = target: T1, AaegOR9; design: method as in Bohbot et al., 2011; conditions: ref Bohbot et al., 2011; cited from earlier work
OR02-ORco [4] = tested on: OR02-ORco; design: method as in Bohbot et al., 2011; conditions: Aedes aegypti OR02-ORco; kairomone receptor; ref Bohbot et al., 2011; cited from earlier work
OR02-ORco [5] = tested on: OR02-ORco; design: method as in Pelletier et al., 2010; conditions: Culex quinquefasciatus OR02-ORco; kairomone receptor; ref Pelletier et al., 2010; cited from earlier work

T1 sequence (Q178U6 whole entry): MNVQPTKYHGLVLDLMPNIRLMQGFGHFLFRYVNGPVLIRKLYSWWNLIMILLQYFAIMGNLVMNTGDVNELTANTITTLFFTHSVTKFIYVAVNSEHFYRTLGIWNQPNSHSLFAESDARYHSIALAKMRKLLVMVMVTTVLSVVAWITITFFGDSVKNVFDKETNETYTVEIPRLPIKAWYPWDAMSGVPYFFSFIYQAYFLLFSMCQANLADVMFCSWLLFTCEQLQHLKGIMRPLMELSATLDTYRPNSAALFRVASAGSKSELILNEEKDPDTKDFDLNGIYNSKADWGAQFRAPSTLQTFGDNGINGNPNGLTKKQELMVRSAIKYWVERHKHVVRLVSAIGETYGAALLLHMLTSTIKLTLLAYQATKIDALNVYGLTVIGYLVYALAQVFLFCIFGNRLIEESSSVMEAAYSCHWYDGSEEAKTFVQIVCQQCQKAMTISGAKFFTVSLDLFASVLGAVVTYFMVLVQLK
T1 sequence (Q177X5 entry or part of it): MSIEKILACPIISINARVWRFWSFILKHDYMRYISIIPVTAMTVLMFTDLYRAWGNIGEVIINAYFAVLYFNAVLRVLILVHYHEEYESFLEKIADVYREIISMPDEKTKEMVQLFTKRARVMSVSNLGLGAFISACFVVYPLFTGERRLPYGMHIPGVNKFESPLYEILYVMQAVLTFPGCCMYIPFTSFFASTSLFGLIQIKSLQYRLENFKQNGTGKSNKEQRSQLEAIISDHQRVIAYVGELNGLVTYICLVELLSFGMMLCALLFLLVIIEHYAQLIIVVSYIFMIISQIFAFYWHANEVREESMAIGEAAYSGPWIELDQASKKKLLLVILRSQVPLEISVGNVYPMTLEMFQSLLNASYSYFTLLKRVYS

c1ccc2[nH]ccc2c1 [indole, 1H-indole]
Ligand potency in AaegOR9 tuning curve (in words) (AaegOR9 [1]; 500 nM odorant, panel of 31 indole derivatives): next most potent ligands | Rank according to potency (No.) (AaegOR9 [1]; AaegOR9 tuning curve of Figure 1, 500 nM, 1 = most potent of 31): 3 | EC50 (OR02-ORco [2]): 167 nM | Concentration range activating AaegOR9 (AaegOR9 [3]): low micromolar | EC50 (OR02-ORco [4]): 370 nM | EC50 (OR02-ORco [5]): 280 nM

From article PMC6353850, “Supersensitive Odorant Receptor Underscores Pleiotropic Roles of Indoles in Mosquito Ecology” (Frontiers in Cellular Neuroscience, 2019)
